In paper PMC5428013, “Peptide-Au Clusters Induced Tumor Cells Apoptosis via Targeting Glutathione Peroxidase-1: The Molecular Dynamics Assisted Experimental Studies” (Scientific Reports, 2017):

Assays:
GPx-1 [1] = experiment: GPx-1 enzyme activity suppression in buffer; assay type: biochemical, bovine; settings: buffer, Au dose of 400 μM, 10 min, GPx Activity Colorimetric Assay Kit, NADPH absorbance at 340 nm
From the text: The peptides (N2H-CCYGGPEEEEEVG-COOH (named P1), NH2-CCYGGPDDDEDVG-COOH (named P2) and NH2-CCYGGPEEVEEVG-COOH (named P3)) were chemically synthesized by a solid phase method (China Peptides Co. Ltd, Purity: 98%). Hydrogen tetrachloroaurate (III) (HAuCl4·4H2O) was purchased from Sinopharm Chemical Reagent Co. Ltd. Sodium hydroxide (NaOH), nitric acid (HNO3), hydrochloric acid (HCl) and hydrogen peroxide (H2O2) were purchased from Beijing Chemical Reagent Co., China. Human non-small cell lung carcinoma cells (A549 cells), Henrietta Lacks strain of cancer cells (Hela cells) and human colon adenocarcinoma cells (HCT-8 cells) were from Cancer Institute and Hospital, Chinese Academy of Medical Sciences. Fetal bovine serum (FBS) and trypsin-EDTA were obtained from Gibco, USA. Penicillin-streptomycin solution, cell culture medium DMEM and RPMI 1640 were purchased from Hyclone. Hoechst 33342, LysoTracker®Green DND-26, and CM-H2DCFDA were from Molecular Probes, USA. NucView™ 488 Caspase-3 Assay Kit was bought from Biotium, USA. 5,5′,6,6′-tetrachloro-1,1′,3,3′-tetraethylbenzimidazolocarbocyanine iodide (JC-1), cell lysis buffer for Western and IP, phenylmethanesulfonyl fluoride (PMSF) and BCA Protein Assay Kit were obtained from Beyotime Institute of Biotechnology, China. Protease inhibitor cocktail tablets were from Roche Diagnostics, GmbH, Mannheim, Germany. Cell counting kit-8 (CCK-8) reagents and Annexin V-FITC/Propidium (PI) Apoptosis Detection Kit were purchased from Dojindo Laboratories, Japan. GPx from bovine erythrocytes […] was provided by Sigma Aldrich, USA. GPx Activity Colorimetric Assay Kit was provided by Biovision, USA. Anti-GPx-1 antibody was offered by Abcam, UK. PARP antibody, caspase-3 antibody and β-actin antibody were offered by Cell Signaling Technology, USA. Amicon ultra centrifugal filter devices (Merck Millipore, MWCO: 10 kDa) were used for purification steps. Ultrapure Millipore (Mini-Q) water (18.2 MΩ) was used throughout the experiments. […]
Pure GPx (lyophilized powder, ≥300 units/mg protein) were diluted by GPx sample buffer and incubated with peptide-Au clusters (Au25P1_9, Au25P2_9 and Au25P3_9) at a series of Au dose (0, 25, 100, 400 μM) for 10 min, respectively. […] The GPx activity of untreated samples was set as 100%, and that of peptide-Au clusters treated samples were expressed as a relative percentage of untreated ones.
Figure S12. Peptide-Au clusters treated GPx-1 activity measured in buffer solution. The decrease in NADPH absorbance measured at 340 nm during the oxidation of NADPH to NADP is the indicative of GPx activity,^1, 2 which is in a dose dependent manner in tube experiments when treated with serial doses of peptide-Au clusters.

A549 cells = experiment: Cell viability assay (CCK-8), A549; assay type: cell-based, human; settings: A549, Au dose of 800 μM, 48 h, CCK-8; mean from three independent experiments
Description: Briefly, cells were prior cultured on 96-well plates (at the density of 5 × 10^3 cells/well) for 24 h to allow cells attachment. The cells were treated with different doses of these free peptides (0, 1, 4, 16, 64, 256, 1024 µM) and peptide-Au clusters (0, 50, 100, 200, 400, 800 µM in Au dose) for 48 h, respectively. The cells were washed three times with PBS and then incubated with fresh growth medium containing 10% (v/v) CCK-8 reagent for 1 h at 37 °C for cell viability assay. The absorbance was measured at 450 nm by using a microplate reader (SpectraMAX M2, Sunnyvale, California). Cell viability of untreated cells was set as 100%, and that of treated cells were expressed as a relative percentage of untreated cells. All data were shown as mean percentages ± standard deviation from three independent experiments.

GPx-1 [2] = settings: through interacting with selenocystein by forming a stable gold-Sec complex; cited from earlier work
From the text: Glutathione peroxidase-1 (GPx-1), a crucial antioxidant selenoenzyme in mammalian cells, is selected as a model drug target for tumor treatment. Suppression of intracellular GPx-1 activity induces the accumulation of hydrogen peroxide (reactive oxygen species, ROS), which would render tumor cells susceptible to ROS-induced apoptosis, [20].

Compound	GPx-1 activity (relative to untreated = 100%) (GPx-1 [1]) [%]	cell viability (relative to untreated = 100%) (A549 cells) [%]	inhibition of GPx-1 activity (GPx-1 [2])
CCYGGPEEVEEVG [Au25P3_9, Au25 cluster coated by nine P3 peptides (…)]	29	71	
O=C(O)CC([S-])C(=O)O.[Au+] (stereo not drawn) [gold thiomalate]			can inhibit GPx-1 activity
CC(=O)OC[C@H]1O[C@@H]([S-])[C@H](OC(C)=O)[C@@H](OC(C)=O)[C@@H]1OC(C)=O.CCP(CC)CC.[Au+] [auranofin]			can inhibit GPx-1 activity
CCYGGPDDDEDVG [Au25P2_9, Au25 cluster coated by nine P2 peptides (…)]	16	53	
